Molecular target: Cannabinoid receptor 2 (Homo sapiens, UniProt P34972)
Test: Displacement of [3H]-CP-55940 from human recombinant CB2 receptor expressed in HEK293 cells after 90 mins by Competition binding assay

Cannabinoid receptor 2, sequence (P34972 whole entry): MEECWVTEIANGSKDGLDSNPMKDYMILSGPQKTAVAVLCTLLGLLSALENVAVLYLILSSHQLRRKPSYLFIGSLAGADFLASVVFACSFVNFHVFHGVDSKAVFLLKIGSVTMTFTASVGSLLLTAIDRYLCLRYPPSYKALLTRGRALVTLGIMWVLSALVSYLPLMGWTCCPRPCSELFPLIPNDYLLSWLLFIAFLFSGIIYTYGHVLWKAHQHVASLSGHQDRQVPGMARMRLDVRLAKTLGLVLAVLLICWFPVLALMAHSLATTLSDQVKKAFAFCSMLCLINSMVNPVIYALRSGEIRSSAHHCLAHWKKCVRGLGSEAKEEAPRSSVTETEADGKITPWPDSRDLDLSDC

Row | Compound | Ki [nM]
1 | CCCCCn1c(=O)c(C(=O)NC23CC4CC(CC(C4)C2)C3)c(O)c2cc(C(C)C)ccc21 | 0.53
2 | CCCCCn1c(=O)c(C(=O)NC23CC4CC(CC(C4)C2)C3)c(O)c2ccc(F)cc21 | 0.93
3 | CC(C)c1ccc2c(c1)c(=O)c(C(=O)NC13CC4CC(CC(C4)C1)C3)cn2CCN(C)C | 146
4 | COCCOCn1cc(C(=O)NC23CC4CC(CC(C4)C2)C3)c(=O)c2cc(C(C)C)ccc21 | 480
5 | CC(C)c1ccc2c(c1)c(=O)c(C(=O)NC13CC4CC(CC(C4)C1)C3)cn2CCN1CCS(=O)(=O)CC1 | 1930
6 | CN(C)CCn1cc(C(=O)NC23CC4CC(CC(C4)C2)C3)c(=O)c2ccc(F)cc21 | 60
7 | COCCOCn1cc(C(=O)NC23CC4CC(CC(C4)C2)C3)c(=O)c2ccc(F)cc21 | 56
8 | O=C(NC12CC3CC(CC(C3)C1)C2)c1cn(CCN2CCS(=O)(=O)CC2)c2cc(F)ccc2c1=O | 246
9 | CC(C)c1cc2c(=O)c(C(=O)NC34CC5CC(CC(C5)C3)C4)cn(CCN(C)C)c2cc1F | 11
10 | CCCCCn1c(=O)c(C(=O)NC23CC4CC(CC(C4)C2)C3)c(O)c2cc(C(C)C)c(F)cc21 | 66
11 | O=C(NCC1CCCCC1)c1c(O)c2ccccc2n(CCCCO)c1=O | 41
12 | O=C(NCc1ccc(F)cc1)c1c(O)c2cc(-c3ccco3)ccc2n(CCCCO)c1=O | 253
13 | COc1ccc(CNC(=O)c2c(O)c3cc(-c4cccs4)ccc3n(CCCCO)c2=O)cc1 | 2240
14 | CCCCCn1c(=O)c(C(=O)NCc2ccc(OC)cc2)c(O)c2cc(-c3cccs3)ccc21 | 20

From BindingDB's records for doi:10.1021/acs.jmedchem.5b01559 (University of Siena, 2016)
